Results reported in US20220288048A1, “PIMAVANSERIN FOR TREATING SCHIZOPHRENIA OR FOR TREATING PSYCHOSIS SECONDARY TO NEURODEGENERATIVE DISORDERS OR DEPRESSIVE DISORDER” (ACADIA Pharmaceuticals Inc., priority 2019, published 2022).
“Also recorded” adds a separate entry of the source.

Columns and labels:
[1] = system: adult schizophrenia patients; test: 6-week adjunctive pimavanserin study: safety and adverse events; format: in vivo, human
Experimental: The effect of pimavanserin as an adjunctive treatment in adult schizophrenia patients with a persistent inadequate response (i.e., partial responders) to their existing antipsychotic therapy was tested. 396 patients with moderate-to-severe psychotic symptoms were randomized to receive either pimavanserin or placebo added to existing antipsychotic treatment.
Patients were administered a daily dose of pimavanserin or a placebo for six weeks. The dose started at 20 mg and could be adjusted to 34 mg or 10 mg between weeks 1 and 3. The majority of patients (56%) completed the study at the highest dose level.
The safety of the pimavanserin arm was similar to placebo, with no new signals observed. […] The overall number of SAEs and AEs leading to discontinuation was low. The most commonly reported AEs leading to discontinuation of treatment were from the psychiatric disorders system and seen in the active arm.

[2] = system: scPCP-treated C57BL/6J mice; test: 10-min social interaction test in scPCP-treated mice; format: in vivo; settings: pimavanserin 3 and 6 mg/kg ip, alone
Experimental: Negative symptoms model: The behavioral assay utilized to assess negative symptoms was social interaction (SI) task.
Briefly, mice were habituated to the test arena (i.e., the NOR box) for 30 minutes prior to the test day. Pairs of mice, unfamiliar to each other, received either the same treatment (e.g., vehicle and vehicle; N=10 pairs) or different treatments (e.g., vehicle; N=10 and phencyclidine (PCP) 10 mg/kg; N=10). After washout, they were placed in the test arena together for 10 minutes. A heavy object made of Plexiglas or metal was placed in the center of the test arena to quantify the time and nature of interaction of the test animals with an unfamiliar object or an unfamiliar animal. After the 10 min test phase, the object and the arena were cleaned with 70% ethanol to remove any olfactory trails. Behavior was recorded on video for subsequent blind scoring.
The following four behaviors were scored for each animal: • a) Sniffing: A normal mouse engages in sniffing the con-specific mouse's body, including the anogenital area • b) Following: A normal mouse pursues a con-specific mouse around the arena • c) Avoiding: A normal mouse avoids the con-specific mouse and move away from a pursuing mouse if approached • d) Object Exploration: A normal mouse explores the object that is placed in the center of the test arena.
scPCP treatment involved intraperitoneal injection (ip) of 10 mg/kg PCP to male C57BL/6J mice, twice daily (bid) for 7 days, followed by 7 days washout. To test the effect of atypical APD or pimavanserin in scPCP-treated mice (N=10 pairs of mice per group), risperidone was administered as 0.05 mg/kg ip or 0.2 mg/kg ip; and pimavanserin was administered as 3 mg/kg ip or 6 mg/kg ip to scPCP-treated mice 45 minutes prior to the commencement of the social interaction task in the 10 min social interaction test.

[3] = Plasma levels of risperidone in scPCP and ARS-treated mice (mass spectrometer); format: in vivo; settings: 3 mg/kg pimavanserin with 0.2 mg/kg risperidone
Experimental: The behavioral assay, ARS protocol, and scPCP-treatment as described in Example 2 were used. To test the effect of atypical APD and pimavanserin, alone or as con-administration, in scPCP-treated mice (N=10 pairs of mice per group) given 2 h ARS, risperidone (“Risp”) was administered as 0.2 mg/kg or 0.4 mg/kg ip; olanzapine (“Olan”) as 1.0 mg/kg ip; aripiprazole (“Aripi”) as 1.0 mg/kg ip; and pimavanserin (“Pim”) as 3 mg/kg ip to scPCP+ARS(2h) treated male C57BL/6J mice 45 minutes prior to the commencement of the social interaction task in the 10 min social interaction test. Plasma levels of risperidone were measured using a Triple Quad 6500+ mass spectrometer.

[4] = system: subjects with schizophrenia who have predominant negative symptoms; test: Phase 2, 26-week placebo-controlled study of adjunctive pimavanserin for negative symptoms of schizophrenia: efficacy; format: in vivo, human; settings: for NSA-16 total score vs placebo, effect size: Week 26; for NSA-16 total score, change from Baseline to Week 26: placebo −8.5
Experimental: This study is conducted as a Phase 2, 26-week, randomized, double-blind, placebo-controlled, multicenter, multinational outpatient study in subjects with schizophrenia who have predominant negative symptoms while on adequate treatment with an antipsychotic. Schizophrenia is defined by the Diagnostic and Statistical Manual of Mental Disorders, Fifth Edition (DSM-5), confirmed by a customized module of the Structured Clinical Interview for DSM-5, Clinical Trials Version (SCID-5-CT). This study enrolls approximately 403 subjects with predominant negative symptoms of schizophrenia. In the study, patients were randomized to receive either pimavanserin or placebo added to their current background antipsychotic treatment for 26 weeks in duration. At baseline all patients were started on a daily dose of 20 mg of pimavanserin or placebo with dose adjustments allowed up to 34 mg or down to 10 mg during the first eight weeks of treatment. Following week eight no further dose modifications were allowed for the remaining 18 weeks in the study.
The daily dose of the main antipsychotic must remain stable and may not be changed from Screening through the duration of the study. […] At the Weeks 2, 4, and 8 visits, the daily dose of pimavanserin may remain at 20 mg or it may be either increased to 34 mg (for symptom improvement) or decreased to 10 mg daily (if the 20 mg dose is not well tolerated). After the Week 8 visit, no study drug dose changes may be made. Clinic visits occurring after Baseline will be conducted at Weeks 2, 4, 8, 14, 20, and 26 (End-of-Study [EOS]/Early Termination [ET] visit).
The test products are pimavanserin 10 mg and 17 mg tablets or matching placebo. Daily doses of pimavanserin to be studied are 10 mg (provided as 1×10 mg pimavanserin tablet and 1× matching placebo); 20 mg (2×10 mg pimavanserin tablets); or 34 mg (2×17 mg pimavanserin tablets); or matching placebo (2× placebo tablets); delivered by mouth. Seventeen (17) mg of the active moiety is dosed as 20 mg of the salt pimavanserin tartrate; 10 mg of the active moiety is dosed as 11.8 mg of the salt pimavanserin tartrate. The duration of participation for individual subjects will be up to approximately 34 weeks.
Primary Efficacy Endpoint is the change from Baseline to Week 26 in the Negative Symptom Assessment-16 (NSA-16) total score.
Secondary Endpoints Key Secondary Endpoint is the change from Baseline to Week 26 in the Personal and Social Performance Scale (PSP) score.

Question: Which “Patients who completed the study” value ([1]; 6-week study) does the source give for `CC(C)COc1ccc(CNC(=O)N(Cc2ccc(F)cc2)C2CCN(C)CC2)cc1` [Pimavanserin, N-(4-Fluorophenylmethyl)-N-(1-methylpiperidin-4-yl)-N′-(4-(2-methylpropyloxy)phenylmethyl)carbamide] here?
Answer: The value was “Approximately 88%”.

Question: And the QT prolongation ([1]; 6-week study)?
Answer: The QT prolongation was “Minimal QT prolongation”.

Question: And the “Vital signs, weight, metabolic syndrome, and extrapyramidal symptoms compared to adjunctive placebo” value ([1]; 6-week study)?
Answer: Its value is “did not result in clinically significant differences; also recorded: No effect was seen”.

Question: And the “Any Related Serious Treatment-Emergent Adverse Event, Events n” value ([1]; Safety Analysis Set, N = 198)?
Answer: Its value is 2.

Question: What about the “Any Related Serious Treatment-Emergent Adverse Event, Subjects (%)” value ([1]; Safety Analysis Set, N = 198) of the same compound?
Answer: Its value is 0.5%.

Question: And the “Any Related Serious Treatment-Emergent Adverse Event, Subjects n” value ([1]; Safety Analysis Set, N = 198)?
Answer: Its value is 1.

Question: And the “Any Related Treatment-Emergent Adverse Event, Events n” value ([1]; Safety Analysis Set, N = 198)?
Answer: Its value is 46.

Question: What about the “Any Related Treatment-Emergent Adverse Event, Subjects (%)” value ([1]; Safety Analysis Set, N = 198) of the same compound?
Answer: Its value is 16.7%.

Question: What about the “Any Related Treatment-Emergent Adverse Event, Subjects n” value ([1]; Safety Analysis Set, N = 198) of the same compound?
Answer: Its value is 33.

Question: What about the “Any Serious Treatment-Emergent Adverse Event, Events n” value ([1]; Safety Analysis Set, N = 198) of the same compound?
Answer: The value was 3.

Question: What about the “Any Serious Treatment-Emergent Adverse Event, Subjects (%)” value ([1]; Safety Analysis Set, N = 198) of the same compound?
Answer: Its value is 1.0%.

Question: What about the “Any Serious Treatment-Emergent Adverse Event, Subjects n” value ([1]; Safety Analysis Set, N = 198) of the same compound?
Answer: The value was 2.

Question: And the “Any Treatment-Emergent Adverse Event Leading to Discontinuation or Study Termination, Events n” value ([1]; Safety Analysis Set, N = 198)?
Answer: The value was 7.

Question: What about the “Any Treatment-Emergent Adverse Event Leading to Discontinuation or Study Termination, Subjects (%)” value ([1]; Safety Analysis Set, N = 198) of the same compound?
Answer: The value was 2.5%.

Question: And the “Any Treatment-Emergent Adverse Event Leading to Discontinuation or Study Termination, Subjects n” value ([1]; Safety Analysis Set, N = 198)?
Answer: Its value is 5.

Question: What about the “Any Treatment-Emergent Adverse Event, Events n” value ([1]; Safety Analysis Set, N = 198) of the same compound?
Answer: The value was 142.

Question: What about the “Any Treatment-Emergent Adverse Event, Subjects (%)” value ([1]; Safety Analysis Set, N = 198) of the same compound?
Answer: Its value is 40.4%.

Question: What about the “Any Treatment-Emergent Adverse Event, Subjects n” value ([1]; Safety Analysis Set, N = 198) of the same compound?
Answer: The value was 80.

Question: And the “Any Serious Treatment-Emergent Adverse Event, Subjects (%)” value ([1]; Safety Analysis Set, N = 198, listed as pimavanserin)?
Answer: Its value is 1%.

Question: What about the “Adverse events reported in at least 5% of patients” value ([1]; pimavanserin group, 6-week study) of the same compound?
Answer: The value was “headache, somnolence, and insomnia”.

Question: What about the “Restoration of SI deficit in scPCP-treated mice” value [2] of the same compound?
Answer: The value was “did not restore SI deficit”.

Question: And the “Pharmacokinetic effect of pimavanserin on risperidone drug levels” value [3]?
Answer: The value was “not due to a pharmacokinetic effect”.

Question: What about the “NSA-16 total score vs placebo, effect size” value ([4]; 34 mg dose) of the same compound?
Answer: The value was 0.34.

Question: What about the “NSA-16 total score, change from Baseline to Week 26” value ([4]; all pimavanserin doses (10-34 mg daily), added to background antipsychotic) of the same compound?
Answer: The value was −10.4.

Question: And the “NSA-16 total score vs placebo, effect size” value ([4]; all pimavanserin doses)?
Answer: The value was 0.21.

Question: What about the “Personal and Social Performance Scale, change from Baseline to Week 26” value ([4]; key secondary endpoint, placebo 8.1) of the same compound?
Answer: The value was 8.1.

Question: What about the “NSA-16 total score, change from Baseline to Week 26” value ([4]; patients who received the 34 mg fixed dose after week 8 (n=107)) of the same compound?
Answer: The value was −11.6.
